The text below walks through data of publication PMC8546421, “Molecular modelling of the FOXO4-TP53 interaction to design senolytic peptides for the elimination of senescent cancer cells” (EBioMedicine, 2021).

Where no end group is shown, it is not given here.

For this assay, the system named is dividing A375 human melanoma cells. Kind of assay: Survival study, orthotopic A375 xenograft. To be noted: local injection once daily for two days. It counts as in vivo, mouse. An excerpt:
Mice were aged between 3-8 months and 20-30 g in weight and were housed in specific pathogen free cages. Animals were randomly distributed among treatment groups by assigning mice within the same cage to different treatment regimens. To minimise confounders, mouse treatment order was randomised within each cage. Male and female mice were distributed between all treatment groups since the chemicals used were directly injected and are not metabolized. Researchers were not blinded to the group allocation, but all attempts were made to analyse the data without knowing treatment conditions. NOD.Cg-Prkdcscid Il2rgtm1Wjl/SzJ (NSG) were purchased from The Jackson Laboratory (IMSR Cat# JAX:005557, RRID:IMSR_JAX:005557). NOD.Cg-KitW-41J Tyr + Prkdcscid Il2rgtm1Wjl/ThomJ (NBSGW) were purchased from The Jackson Laboratory (IMSR Cat# JAX:026622, RRID:IMSR_JAX:026622). Immunocompromised mice used for these experiments were all in the NSG background; however, some mice were F1 generation of NSG x NBSGW, thus the brown coat colour as NBSGW mice have tyrosinase. Xenografts containing senescent cells were established by injecting A375-Luc/iRFP human melanoma cells which contained a luciferase expressing gene into immunocompromised NSG ears. Senescence was induced in the cells via doxorubicin treatment (40 nM) then resuspended in DMEM prior to injection. Each ear was then injected with 50 µL containing approximately 1,000,000 cells. The ears were treated once daily for two days with 50 µL of either 5 mg/mL peptide, or saline. To control for confounders, each mouse contained one ear treated with saline (control). For imaging, mice were injected with 3 mg luciferin intravenously and imaged before and after treatment. Transgenic mice (BrafCA, PtenloxP, Tyr::CreERT2) were purchased from The Jackson Laboratory (IMSR Cat# JAX:013590, RRID:IMSR_JAX:013590). These mice were maintained on a C57Bl6 background and all experimental mice contained Tyr::CreER with either Braf^CA/+, Pten^fx/+; Braf^CA/CA, Pten^fx/+, or Braf^CA/+, Pten^fx/fx. […] Hypopigmented melanomas sporadically formed over the next 3-5 months, typically on the back of the mouse. These melanomas were then directly injected with 100 µL of either 20 mg/mL ES2+10%DMSO, saline+10%DMSO, saline+10%Dabrafenib, or 20 mg/mL ES2+10%Dabrafenib. The researchers were not blinded to the experiment, but each mouse contained an internal control and all imaging was done with the same exposure times based upon control tissue. For survival analyses, either 750,000 or 25,000 A375-Luc/iRFP cells were injected intradermally into NSG mice. […] Mice were then monitored daily and allowed to age until a humane endpoint was reached according to our IACUC protocol, which in this case was tumours of 2 cm in size. […]

Take “PRKGGRRRRAWGRRRRRRRRRRRRRRAPRKRLTLA [ES2]”: the “effect on survival time, in words” value reads like this: (25,000 A375 cells) “no effect on survival time”; (750,000 A375 cells) “did not alter survival times”.
